Where two headings read alike, the source gives them in different places.

For orientation: IC50 means the concentration at which inhibition is half-maximal.

In test [1] the test system is P. falciparum. In words: P. falciparum growth in culture ([3H]-hypoxanthine incorporation). The note with it: Plasmodium falciparum, Table 3, naphthothiazolium salts, in culture, read-out: IC50 vs. P. falc. The test is classed as cell-based.
For the next test, the system named is synthetic hemozoin. Description: Depolymerization of synthetic hemozoin in vitro. Particulars: 50 mM test compound, acetate buffer pH 5.0, 37° C., 16 hours. The test is classed as biochemical. Here is the method:
This activity is evaluated by incubating a suspension of monomer-free hemozoin at 37° C. with compounds of the present invention for 16 hours. After incubation, hemozoin is separated from any solubilized heme and soluble heme oligomers, the oligomers depolymerized, and the heme present in the supernatants determined.
The synthesis of synthetic hemozoin is carried out as previously described (26). In brief, 60 μmoles of hematin was dissolved in 8 ml of 0.1N NaOH. Following dissolution 49 mmoles of glacial acetic acid was added and the suspension heated at 70° C. overnight. The precipitate was then washed extensively with LPS-free water. In order to remove unreacted heme the precipitate was extracted with 0.1M sodium bicarbonate (pH 9.1) for three hours. The remaining insoluble material was recovered by centrifugation, resuspended in EtOH and transferred to sterile Eppendorf tubes. The material was washed several times in EtOH and finally resuspended in LPS-free double-distilled H2O. The hemozoin preparation was then tested for endotoxin by using the Limulus Amebocyte Lysate test following manufacturer's instructions. Although the preparation of LPS-free hemozoin from native or synthetic sources is not critical for in vitro depolymerization studies, it is critical for studies involving monocytes and animals (see Examples below). Small amounts of LPS can evoke a considerable cytokine response and interfere with interpretation of results. The amount of heme in the final product was determined from a small aliquot using the pyridine-hemochrome method as previously described (26). The preparations are stored at 4° C. until used.
A suspension of monomer-free hemozoin (equivalent to 2 mM free heme) as prepared above was incubated at 37° C. with […] test compound in total volume of 500 μl in acetate buffer (pH: 5.0) in siliconized Eppendorf tubes (Brinkmann Instruments, Westbury, N.Y.) for 16 hours. A control sample containing distilled H2O instead of hemozoin was included. The samples were centrifuged at 14,000 rpm (Eppendorf centrifuge model 5415C, Brinkmann Instruments, Westbury, N.Y.) for 20 min; then 225 μl supernatant was diluted in 175 μl acetate buffer (pH 5.0). Another 225 μl was added to 175 μl 0.5 M NaOH to dissolve possible oligomeric depolymerization products to monomers. Half of the pellet was washed twice for 2.5 hr in 200 μl 2.5% SDS (v/v) in dH2O, the other half was washed twice in 200 μl HCO3^− buffer (pH: 9.1). Both sample supernatants and SDS and HCO3^− buffer supernatants were centrifuged 14,000 rpm for 20 min. and supernatants were added to 10 μl sodium dithionite (200 mg/ml dH2O) to reduce the heme monomers in solution to Fe^2+. All samples were measured in triplicate at 540 nm (Model UV1601 spectrophotometer, Shimradzu Corp, Columbia, Md.). The OD obtained from the blind sample was subtracted from the OD of the hemozoin containing sample.

In test [2] the test system is P. falciparum chloroquine resistant strain (CQR). In words: P. falciparum growth in culture, chloroquine resistant strain ([3H]-hypoxanthine incorporation). The test is classed as cell-based. Particulars: Plasmodium falciparum, Table 3, read-out: IC50 vs. P. falc. in CQR. Here is the method:
(§1) To determine the effectiveness of the compounds of the present invention against the erythrocytic stage of the malarial parasite, P. falciparum was grown in human erythrocyte suspensions and maintained at 37° C. in candle jars according to the method of Trager and Jensen (15,16). Parasites were stage-synchronized by incubating mainly ring-stage infected erythrocytes in 5% sorbitol for 10 minutes at room temperature (17). Cultures undergo one growth cycle (2 days) before use. Strains used include the chloroquine sensitive strains D10 and HB3, and the chloroquine resistant isolates Dd2 and FCR.
Parasite growth was determined by measuring incorporation of [^3H]-hypoxanthine into the nucleic acids of the parasite (18). Effects of the compounds of the present invention on parasite growth was determined by measuring the reduction in incorporation of radiolabel as compared to controls. […] After 18 h the plates are harvested onto glass fiber filter 96 well plates using a cell harvester, dried, and the amount of radioactivity is determined. […]
Parasite growth was determined by measuring incorporation of [^3H]-hypoxanthine into the nucleic acids of the parasite as previously described (23). Effects of the compounds of the present invention on parasite growth was determined by measuring the reduction in incorporation of radiolabel as compared to controls. […] The, amount of radioactivity was determined. […]

The test system of test [3] is hemozoin ingested by human monocytes. Description: Breakdown of macrophage-ingested hemozoin. Format: cell-based. The note with it: 25 μM compound, FIG. 1. The method, then: A further evaluation of compounds was performed for activity against pathophysiological effects of hemozoin on the host, using hemozoin-laden macrophages in culture. Freshly-isolated human monocytes were suspended in medium and hemozoin at a concentration reflective of the amount of hemozoin released into circulation during schizogony. In order to maximize contact between hemozoin and monocytes, the cell preparations were centrifuged for 5 sec at 150×g. Ingestion of hemozoin is essentially complete by two hours. Cells were then washed, plated and kept in a humidified incubator. The test compounds of the present invention were added to the wells at concentrations ranging from 0 to 20 mM. Macrophage viability was determined by direct microscopic examination (gross morphology and detachment from the well), trypan blue exclusion method, and LDH release. […] At various times post-treatment (1 hour; 3 hours), cells were lysed, extensively washed and spun down (2500×g) to pellet any cellular components including hemozoin. The lysates were then treated with alkali to dissolve hemozoin to give monomeric heme (35). Monomeric heme was quantified as described above.
Human monocytes were freshly isolated from a buffy coat from a normal donor using Percoll gradients. […] Cells were solubilized at various time points and hemozoin content determined by luminol-elicited chemiluminescence.

In test [4] the test system is P. falciparum. In words: P. falciparum growth in culture ([3H]-hypoxanthine incorporation). Particulars: Table 2, aromatic bisguanylhydrazones; growth in culture, [3H]-hypoxanthine incorporation; read-out: IC50 vs. P. falc. The test is classed as cell-based. The method, then: as §1
Parasite growth was determined by measuring incorporation of [^3H]-hypoxanthine into the nucleic acids of the parasite (18). Effects of the compounds of the present invention on parasite growth was determined by measuring the reduction in incorporation of radiolabel as compared to controls. Briefly, assays are performed in 96-well microtiter plates. After 24 h of candle jar incubation at 37° C., [^3H]-hypoxanthine is added to each well. After 18 h the plates are harvested onto glass fiber filter 96 well plates using a cell harvester, dried, and the amount of radioactivity is determined. Drug IC50 values (molar concentration which decreases [^3H]-hypoxanthine incorporation by 50% as compared to drug-free controls) are calculated by extrapolation of the log dose-response curves using curve fitting software (Origin, Microcal Software, Northampton, Mass.).
Parasites were grown in A^+ human erythrocyte suspensions using RPMI-1640 (GIBCO, Gaithersburg, Md.) medium supplemented by 25 mM HEPES (pH 7.35), 0.2% NaHCO3 (23 mM), 0.2% (D)-Glucose and 10% human A^+ plasma and maintained at 37° C. in candle jars according to the method of Trager and Jensen (20,21) Parasites are stage synchronized by incubating mainly ring-stage infected erythrocytes in 5% sorbitol for 10 minutes at room temperature (22). Cultures undergo one growth cycle (2 days) before use. Strains used include the chloroquine sensitive strains D10 and HB3, and the chloroquine resistant isolates Dd2 and FCR.
Parasite growth was determined by measuring incorporation of [^3H]-hypoxanthine into the nucleic acids of the parasite as previously described (23). Effects of the compounds of the present invention on parasite growth was determined by measuring the reduction in incorporation of radiolabel as compared to controls. Briefly, assays were performed in 96-well microtiter plates, each well containing 200 μl of synchronized ring-stage infected erythrocytes in complete media and 50 μl of drug dilution or solvent. The final hematocrit was 1.5% and percent parasitemias range from 2-8%. After 24 h of candle jar incubation at 37° C., 2.5 μCi of [^3H]-hypoxanthine (17 Ci/mmol, Amersham, Arlington Heights, Ill.) in RPMI-1640 media supplemented with 25 mM HEPES (pH 7.35), 0.2% NaHCO3 (23 mM), 0.2% (D)-Glucose is added to each well. After 18 h the plates were harvested onto glass fiber filter 96 well plates using a cell harvester, dried, and 25 μl scintillation acid added per well. The, amount of radioactivity was determined. Drug IC50 values (molar concentration which decreases [^3H]-hypoxanthine incorporation by 50% as compared to drug-free controls) are calculated by extrapolation of the log dose-response curves using curve fitting software (Origin, Microcal Software, Northampton, Mass.). The effects on parasite grown by aromatic guanyllhydrazones, bisguanylhydrazones, naphthothiazolium salts, and other compounds of the instant invention, together with data on hemozoin depolymerization from Example 5, are shown in tables 1 through 4, respectively.

Test [5] deals with freshly isolated human monocytes. In words: Spontaneous and PMA-elicited oxidative burst by freshly isolated human monocytes. Format: cell-based. The note with it: compound 25 uM, PMA 200 nM. Here is the method: Furthermore, Arese and colleagues have data supporting the role of the ingested hemozoin in macrophage dysfunction. Therefore, the compounds of the present invention were evaluated to assess their ability to induce recovery of macrophage effector functions induced by hemozoin. Initially, the effect of the compounds of the present invention were evaluated on spontaneous and PMA-elicited oxidative burst by freshly isolated human monocytes. As will be elaborated upon in the Examples below, freshly isolated human monocytes were plated at 5×10^6 cells/ml, and allowed to equilibrate to 37° C. for 1 h. Compounds of the instant invention were added at a final concentration of 25 uM and PMA added to 200 nM final concentration. Cell suspension aliquots were taken at 30, 60, and 120 minutes, and 14 hours. The oxidative burst was measured by luminol-elicited chemiluminescence for 30 sec., and data expressed as counts per 0.5×10^6 cells.

With `Cc1c(O)c2ccccc2c2c1sc(NCCCN1CCN(C)CC1)[n+]2C.[Cl-]` [1,2-dihydro-1,4-dimethyl-2-[[3-(4-methyl-1-piperazinyl)propyl]imino]naphtho[1,2-d]thiazol-5-ol trihydrochloride], the IC50 in the test on P. falciparum [1] is 75 nM; in test [2], 500 nM. The “% depol. hemoz.” value with synthetic hemozoin (Table 3) stood at 2.0%.
Take `Cc1cc(C=NNC(=N)N)c(O)c(C=NNC(=N)N)c1` [2,2′-[(2-hydroxy-5-methyl-1,3-phenylene)dimethylidyne]bis(hydrazinecarboximidamide)]: in the test with synthetic hemozoin (Table 2), the “% depol. hemoz.” value worked out at 2.3%. The “hemozoin content of monocytes after phagocytosis of hemozoin (luminol-elicited chemiluminescence)” value in test [3] is listed as “significant reduction of hemozoin”. Also, the IC50 with P. falciparum [4] turned out to be 200 nM.
For the molecule `Cc1c(O)c2ccccc2c2c1sc(NC1CCCCC1)[n+]2CCCN(C)C.Cl.[Cl-]` [2-(cyclohexylimino)-1,2-dihydro-4-methyl-1-[3-(dimethylamino)propyl]naphtho[1,2-d]thiazol-5-ol dihydrochloride], the IC50 (with P. falciparum [1]; in test [2]) was 75 nM in each case. Moreover, the “% depol. hemoz.” value with synthetic hemozoin (Table 3) was found to be 2.2%. In addition, the “hemozoin content of monocytes after phagocytosis of hemozoin (luminol-elicited chemiluminescence)” value in test [3] is “hemozoin-dissolving ability”. Also, the “oxidative burst (luminol-elicited chemiluminescence)” value in test [5] is reported as “strong inhibitor”.

For the origin of these results see patent publication US6689777B2 (Kenneth S. Warren Institute, priority 2001, dated 2004).
